Active and inactive are the calls of the source. The rule behind the calls is not given here.
Tests used:
Heme oxygenase = target: T1, Heme oxygenase (Pseudomonas aeruginosa, UniProt O69002); assay: Binding affinity to Pseudomonas aeruginosa HemO by intrinsic fluorescence quenching method
T1 sequence (O69002 whole entry): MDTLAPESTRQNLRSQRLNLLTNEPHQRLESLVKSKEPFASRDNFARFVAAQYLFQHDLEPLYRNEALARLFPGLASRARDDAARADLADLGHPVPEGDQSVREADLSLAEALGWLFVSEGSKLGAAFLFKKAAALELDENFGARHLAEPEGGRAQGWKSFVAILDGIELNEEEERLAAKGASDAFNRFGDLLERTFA

Pseudomonas aeruginosa [1] = assay: Antibacterial activity against Pseudomonas aeruginosa PAO1 after 12 hrs; assay type: functional; settings: PAO1, 12 h
Pseudomonas aeruginosa [2] = assay: Antibacterial activity against Pseudomonas aeruginosa JSRI-1 clinical isolate after 12 hrs; assay type: functional; settings: JSRI-1, 12 h
Pseudomonas aeruginosa [3] = assay: Bactericidal activity against Pseudomonas aeruginosa JSRI-2 clinical isolate after 12 hrs; assay type: functional; settings: JSRI-2, 12 h
Pseudomonas aeruginosa [4] = assay: Bactericidal activity against Pseudomonas aeruginosa JSRI-1 clinical isolate after 12 hrs; assay type: functional; settings: JSRI-1, 12 h
[5] = Inhibition of Pseudomonas aeruginosa HemO mutant expressed in Escherichia coli BL21(DE3) assessed as decrease in biliverdin-9alpha-dependent IFP1.4 fluorescence after 16 hrs by spectrophotometric method
Pseudomonas aeruginosa [6] = assay: Bactericidal activity against Pseudomonas aeruginosa PAO1 after 12 hrs; assay type: functional; settings: PAO1, 12 h
Pseudomonas aeruginosa [7] = assay: Antibacterial activity against Pseudomonas aeruginosa JSRI-2 clinical isolate after 12 hrs; assay type: functional; settings: JSRI-2, 12 h
[8] = target: T2, Heme oxygenase (Pseudomonas aeruginosa) (UniProt O69002); assay: Binding affinity to Pseudomonas aeruginosa HemO by STD NMR method
T2 sequence (whole entry): T1 sequence (O69002 whole entry)

Escherichia coli = assay: Toxicity in Escherichia coli BL21(DE3) expressing Pseudomonas aeruginosa HemO mutant after 16 hrs by phase contrast microscopy
[9] = target: T2, Heme oxygenase (Pseudomonas aeruginosa); assay: Binding affinity to Pseudomonas aeruginosa holo-HemO (53 to 62 residues) at 30 mins by HXMS method

Cl.N=C(N)N/N=C/c1ccccc1F
Kd (Heme oxygenase): 11 µM
MIC50 (Pseudomonas aeruginosa [1]): 131 µg/mL
MIC50 (Pseudomonas aeruginosa [2]): 28.6 µg/mL
MBC (Pseudomonas aeruginosa [3]): 250 µg/mL
MBC (Pseudomonas aeruginosa [4]): > 1000 µg/mL
EC50 [5]: > 200 µM
MBC (Pseudomonas aeruginosa [6]): 1000 µg/mL
MIC50 (Pseudomonas aeruginosa [7]): 72.9 µg/mL

Cl.N=C(N)N/N=C/c1ccccc1O
Kd (Heme oxygenase): 9.2 µM
MIC50 (Pseudomonas aeruginosa [1]): 123 µg/mL
MIC50 (Pseudomonas aeruginosa [2]): 58.5 µg/mL
Activity [8]: Active
MBC (Pseudomonas aeruginosa [3]): 250 µg/mL
MBC (Pseudomonas aeruginosa [4]): > 1000 µg/mL
EC50 [5]: 102 µM
MBC (Pseudomonas aeruginosa [6]): > 1000 µg/mL
MIC50 (Pseudomonas aeruginosa [7]): 79.1 µg/mL

Cl.N=C(N)N/N=C/c1cccc(Cl)c1
Kd (Heme oxygenase): 8.4 µM
MIC50 (Pseudomonas aeruginosa [1]): 52.4 µg/mL
MIC50 (Pseudomonas aeruginosa [2]): 19.2 µg/mL
MBC (Pseudomonas aeruginosa [3]): 250 µg/mL
MBC (Pseudomonas aeruginosa [4]): 500 µg/mL
EC50 [5]: 19.4 µM
MBC (Pseudomonas aeruginosa [6]): 250 µg/mL
MIC50 (Pseudomonas aeruginosa [7]): 33.5 µg/mL

Cl.N=C(N)N/N=C/c1ccc(Br)cc1
Kd (Heme oxygenase): 15 µM
MIC50 (Pseudomonas aeruginosa [1]): 52.5 µg/mL
MIC50 (Pseudomonas aeruginosa [2]): 19.7 µg/mL
MBC (Pseudomonas aeruginosa [3]): 62.5 µg/mL
MBC (Pseudomonas aeruginosa [4]): 250 µg/mL
EC50 [5]: 35.6 µM
MBC (Pseudomonas aeruginosa [6]): 250 µg/mL
MIC50 (Pseudomonas aeruginosa [7]): 13.4 µg/mL

Cl.NC(N)=N/N=C/c1cccc(Br)c1
Kd (Heme oxygenase): 12 µM
MIC50 (Pseudomonas aeruginosa [1]): 51.3 µg/mL
MIC50 (Pseudomonas aeruginosa [2]): 23 µg/mL
MBC (Pseudomonas aeruginosa [3]): 125 µg/mL
MBC (Pseudomonas aeruginosa [4]): 500 µg/mL
EC50 [5]: 11.2 µM
MBC (Pseudomonas aeruginosa [6]): 250 µg/mL
MIC50 (Pseudomonas aeruginosa [7]): 19.4 µg/mL

Cl.N=C(N)N/N=C/c1ccc(Cl)cc1
Kd (Heme oxygenase): 7 µM
MIC50 (Pseudomonas aeruginosa [1]): 49 µg/mL
MIC50 (Pseudomonas aeruginosa [2]): 10.7 µg/mL
MBC (Pseudomonas aeruginosa [3]): 62.5 µg/mL
MBC (Pseudomonas aeruginosa [4]): 250 µg/mL
EC50 [5]: 122 µM
MBC (Pseudomonas aeruginosa [6]): 500 µg/mL
MIC50 (Pseudomonas aeruginosa [7]): 41.6 µg/mL

Cl.N=C(N)N/N=C/c1cccc2ccccc12
Kd (Heme oxygenase): 12 µM
MIC50 (Pseudomonas aeruginosa [1]): 32.1 µg/mL
MIC50 (Pseudomonas aeruginosa [2]): 30.4 µg/mL
MBC (Pseudomonas aeruginosa [3]): 125 µg/mL
MBC (Pseudomonas aeruginosa [4]): 250 µg/mL
EC50 [5]: 52.4 µM
MBC (Pseudomonas aeruginosa [6]): 250 µg/mL
MIC50 (Pseudomonas aeruginosa [7]): 36.1 µg/mL

Cl.NC(N)=N/N=C/c1ccccc1Br
MIC50 (Pseudomonas aeruginosa [1]): 50.1 µg/mL
MIC50 (Pseudomonas aeruginosa [2]): 62.9 µg/mL
Activity [8]: Active
MBC (Pseudomonas aeruginosa [3]): 250 µg/mL
MBC (Pseudomonas aeruginosa [4]): 500 µg/mL
EC50 [5]: 35.3 µM
MBC (Pseudomonas aeruginosa [6]): 500 µg/mL
MIC50 (Pseudomonas aeruginosa [7]): 33.4 µg/mL

Cl.N=C(N)N/N=C/c1ccc(F)cc1
Kd (Heme oxygenase): 14 µM
MIC50 (Pseudomonas aeruginosa [1]): 162 µg/mL
MIC50 (Pseudomonas aeruginosa [2]): 87.4 µg/mL
MBC (Pseudomonas aeruginosa [3]): 500 µg/mL
MBC (Pseudomonas aeruginosa [4]): 1000 µg/mL
EC50 [5]: 77.5 µM
MBC (Pseudomonas aeruginosa [6]): 1000 µg/mL
MIC50 (Pseudomonas aeruginosa [7]): 69.4 µg/mL

CN(C)c1ccc(/C=N/NC(=N)N)cc1.Cl
Kd (Heme oxygenase): 8.8 µM
Activity (Escherichia coli): Non-Toxic
MIC50 (Pseudomonas aeruginosa [1]): 121 µg/mL
MIC50 (Pseudomonas aeruginosa [2]): 32.5 µg/mL
MBC (Pseudomonas aeruginosa [3]): 250 µg/mL
MBC (Pseudomonas aeruginosa [4]): 1000 µg/mL
EC50 [5]: 123 µM
MBC (Pseudomonas aeruginosa [6]): 1000 µg/mL
MIC50 (Pseudomonas aeruginosa [7]): 15.5 µg/mL

CC(C)c1ccc(/C=N/NC(=N)N)cc1.Cl
Kd (Heme oxygenase): 5.7 µM
MIC50 (Pseudomonas aeruginosa [1]): 52.3 µg/mL
MIC50 (Pseudomonas aeruginosa [2]): 20.6 µg/mL
MBC (Pseudomonas aeruginosa [3]): 125 µg/mL
MBC (Pseudomonas aeruginosa [4]): 125 µg/mL
EC50 [5]: 11.3 µM
MBC (Pseudomonas aeruginosa [6]): 125 µg/mL
MIC50 (Pseudomonas aeruginosa [7]): 81 µg/mL

Cl.N=C(N)N/N=C/c1ccc2ccccc2c1
MIC50 (Pseudomonas aeruginosa [1]): 48.4 µg/mL
MIC50 (Pseudomonas aeruginosa [2]): 31.7 µg/mL
MBC (Pseudomonas aeruginosa [3]): 125 µg/mL
MBC (Pseudomonas aeruginosa [4]): 250 µg/mL
EC50 [5]: 43.1 µM
MBC (Pseudomonas aeruginosa [6]): 250 µg/mL
MIC50 (Pseudomonas aeruginosa [7]): 75.6 µg/mL

Cl.NC(N)=N/N=C/c1cccc(F)c1
Kd (Heme oxygenase): 12 µM
MIC50 (Pseudomonas aeruginosa [1]): 66.6 µg/mL
MIC50 (Pseudomonas aeruginosa [2]): 70 µg/mL
MBC (Pseudomonas aeruginosa [3]): 250 µg/mL
MBC (Pseudomonas aeruginosa [4]): 1000 µg/mL
EC50 [5]: 45.1 µM
MBC (Pseudomonas aeruginosa [6]): 1000 µg/mL
MIC50 (Pseudomonas aeruginosa [7]): 68.2 µg/mL

COc1ccc(/C=N/NC(=N)N)cc1.Cl
Kd (Heme oxygenase): 7.8 µM
MIC50 (Pseudomonas aeruginosa [1]): 113 µg/mL
MIC50 (Pseudomonas aeruginosa [2]): 30.5 µg/mL
MBC (Pseudomonas aeruginosa [3]): 500 µg/mL
MBC (Pseudomonas aeruginosa [4]): 1000 µg/mL
EC50 [5]: 77.4 µM
MBC (Pseudomonas aeruginosa [6]): 500 µg/mL
MIC50 (Pseudomonas aeruginosa [7]): 38 µg/mL

N=C(N)N/N=C/c1ccccc1Br
Kd (Heme oxygenase): 6.7 µM

N=C(N)N/N=C/c1cccc(OCc2ccccc2)c1
Activity [8]: Active

Cl.NC(N)=N/N=C/c1ccc(O)cc1
Kd (Heme oxygenase): 4.8 µM
MIC50 (Pseudomonas aeruginosa [1]): 408 µg/mL
MIC50 (Pseudomonas aeruginosa [2]): 443 µg/mL
MBC (Pseudomonas aeruginosa [3]): > 1000 µg/mL
MBC (Pseudomonas aeruginosa [4]): > 1000 µg/mL
EC50 [5]: > 200 µM
MBC (Pseudomonas aeruginosa [6]): > 1000 µg/mL
MIC50 (Pseudomonas aeruginosa [7]): 121 µg/mL

Cl.NC(N)=N/N=C/c1cccc(OCc2ccccc2)c1
MIC50 (Pseudomonas aeruginosa [1]): 23.2 µg/mL
MIC50 (Pseudomonas aeruginosa [2]): 25.5 µg/mL
MBC (Pseudomonas aeruginosa [3]): 62.5 µg/mL
MBC (Pseudomonas aeruginosa [4]): 125 µg/mL
EC50 [5]: 34.3 µM
MBC (Pseudomonas aeruginosa [6]): 125 µg/mL
MIC50 (Pseudomonas aeruginosa [7]): 33.9 µg/mL

COc1ccccc1/C=N/NC(=N)N.Cl
MIC50 (Pseudomonas aeruginosa [1]): 99.5 µg/mL
MIC50 (Pseudomonas aeruginosa [2]): 38.4 µg/mL
Activity [8]: Active
MBC (Pseudomonas aeruginosa [3]): 500 µg/mL
MBC (Pseudomonas aeruginosa [4]): > 1000 µg/mL
EC50 [5]: 72.7 µM
MBC (Pseudomonas aeruginosa [6]): 1000 µg/mL
MIC50 (Pseudomonas aeruginosa [7]): 125 µg/mL

Cl.NC(N)=N/N=C/c1cc(O)cc(O)c1
Kd (Heme oxygenase): 8 µM
MIC50 (Pseudomonas aeruginosa [1]): 1140 µg/mL
MIC50 (Pseudomonas aeruginosa [2]): 338 µg/mL
EC50 [5]: > 200 µM
MIC50 (Pseudomonas aeruginosa [7]): 564 µg/mL

COc1cccc(/C=N/N=C(N)N)c1.Cl
MIC50 (Pseudomonas aeruginosa [1]): 134 µg/mL
MIC50 (Pseudomonas aeruginosa [2]): 48.6 µg/mL
MBC (Pseudomonas aeruginosa [3]): 500 µg/mL
MBC (Pseudomonas aeruginosa [4]): 1000 µg/mL
MBC (Pseudomonas aeruginosa [6]): > 1000 µg/mL
MIC50 (Pseudomonas aeruginosa [7]): 93.4 µg/mL

Cl.NC(N)=N/N=C/c1cccc(Br)c1O
Kd (Heme oxygenase): 8 µM
MIC50 (Pseudomonas aeruginosa [1]): 80.5 µg/mL
MIC50 (Pseudomonas aeruginosa [2]): 145 µg/mL
MBC (Pseudomonas aeruginosa [3]): 250 µg/mL
MBC (Pseudomonas aeruginosa [4]): 1000 µg/mL
EC50 [5]: 60.3 µM
MBC (Pseudomonas aeruginosa [6]): 500 µg/mL
MIC50 (Pseudomonas aeruginosa [7]): 45.6 µg/mL

Cl.N=C(N)N/N=C/c1ccc([N+](=O)[O-])cc1
Kd (Heme oxygenase): 6.2 µM
MIC50 (Pseudomonas aeruginosa [1]): 72.8 µg/mL
MIC50 (Pseudomonas aeruginosa [2]): 61.4 µg/mL
MBC (Pseudomonas aeruginosa [3]): 125 µg/mL
MBC (Pseudomonas aeruginosa [4]): 1000 µg/mL
EC50 [5]: 64.4 µM
MBC (Pseudomonas aeruginosa [6]): 1000 µg/mL
MIC50 (Pseudomonas aeruginosa [7]): 47.2 µg/mL

Cl.NC(N)=N/N=C/c1cccc(O)c1
Kd (Heme oxygenase): 21 µM
MIC50 (Pseudomonas aeruginosa [1]): 750 µg/mL
MIC50 (Pseudomonas aeruginosa [2]): 391 µg/mL
EC50 [5]: > 200 µM
MIC50 (Pseudomonas aeruginosa [7]): 617 µg/mL

Cl.NC(N)=N/N=C/c1ccc(Cl)c(Cl)c1
Kd (Heme oxygenase): 8.4 µM
MIC50 (Pseudomonas aeruginosa [1]): 32.3 µg/mL
MIC50 (Pseudomonas aeruginosa [2]): 24.1 µg/mL
MBC (Pseudomonas aeruginosa [3]): 125 µg/mL
MBC (Pseudomonas aeruginosa [4]): 125 µg/mL
EC50 [5]: 20.3 µM
MBC (Pseudomonas aeruginosa [6]): 125 µg/mL
MIC50 (Pseudomonas aeruginosa [7]): 16.4 µg/mL

Cl.NC(N)=N/N=C/c1ccc(-c2ccccc2)cc1
Kd (Heme oxygenase): 6.7 µM
Activity [9]: Active
MIC50 (Pseudomonas aeruginosa [1]): 59.1 µg/mL
MIC50 (Pseudomonas aeruginosa [2]): 34.6 µg/mL
MBC (Pseudomonas aeruginosa [3]): 62.5 µg/mL
MBC (Pseudomonas aeruginosa [4]): 125 µg/mL
EC50 [5]: 21.9 µM
MBC (Pseudomonas aeruginosa [6]): 125 µg/mL
MIC50 (Pseudomonas aeruginosa [7]): 38 µg/mL

— ChEMBL document CHEMBL3853313, “Iminoguanidines as Allosteric Inhibitors of the Iron-Regulated Heme Oxygenase (HemO) of Pseudomonas aeruginosa” (J Med Chem, 2016)
